Reference: patent US8507463B2, “Nucleotide analogue prodrug and the preparation thereof” (Jiangsu Chia Tai Tianqing Pharmaceutical Co., Ltd., priority 2005, dated 2013)
Where two headings read alike, the source gives them in different places.

What was measured:
[1] = type: physicochemical; conditions: for amount of solvent (ml), 0.1N HCl / amount of solvent (ml), 0.1N NaOH / amount of solvent (ml), anhydrous ethanol / amount of solvent (ml), methanol / amount of solvent (ml), water: to dissolve 1 g of sample
[2] = Light exposure test (4500±500 Lx); type: physicochemical; conditions: light 4500±500 Lx
Excerpt: Samples were evenly spread out and placed in open culture dishes and the thickness thereof was less than 5 mm, then distances were adjusted until the illumination intensity was 4500±500 Lx, samples were taken on the fifth and tenth day respectively for determination, compared with the result of day 0, results were listed in the table below: […]

[3] = High temperature test (60° C.); type: physicochemical; conditions: sealed ampoules
Experimental: Samples were sealed in clean glass ampoules and put in 60° C. thermostatic drying chamber, then they were taken on the fifth and tenth day respectively for determination, compared with the result of day 0, results were listed in the table below:
Samples were sealed in clean glass ampoules and put in 60° C. thermostatic drying chamber, then they were taken on the fifth and tenth day respectively for determination, compared with the result of day 0, results were listed in the table below

[4] = High humidity test (room temperature, relative humidity 75±5%); type: physicochemical; conditions: 25° C.
Experimental: Samples were evenly spread out and placed in open culture dishes, wherein the thickness thereof was less than 5 mm, put in a thermostatic drying chamber at room temperature (25° C.) with relative humidity of 75±5%. Then the samples were taken on the fifth and tenth day respectively for determination, compared with the result of day 0, results were listed in the table below

[5] = Acceleration test (40° C., relative humidity 75%); type: physicochemical
Experimental: Samples were sealed with polyethylene plastic bags, placed in the thermostatic drying chamber at 40±2° C. with relative humidity of 75±5% for 3 months. Then the samples were taken at the end of the first, second and third month respectively for determination, compared with the result of day 0, results were listed in the table below: […]

[6] = Stability analysis, overall conclusion in words; type: physicochemical; conditions: from light, high temperature, high humidity and acceleration tests
[7] = Acute toxicity test, median lethal dose (LD50); conditions: both sexes, mouse, in vivo, oral, mice, infused into the stomach, observed 14 days
Experimental: TD fumarate and TD crystalline form A were dissolved in 0.1M citric acid aqueous solution respectively, 140 healthy mice with 18˜22 g body-weight was selected, randomly divided into 14 groups, 10 per group, and the number of male and female mice were equal.
Following the preliminary test, TD fumarate and TD crystalline form A were administered to 7 different dosing groups by infusing into the stomach, observed for 14 days consecutively to investigate the toxic reaction and death cases of mice and then LD50 was calculated.

Duck Hepatitis B Virus = experiment: Anti-viral (anti-HBV) test in vivo, DHBV-DNA level by PCR; design: species or system GaoYou pockmark ducks; conditions: ducks, once a day, day 0 level as base line of 100
Experimental: Two-month old pockmark ducks vertically infected with Duck Hepatitis B Virus were selected as animal models to conduct anti-HBV test in vivo, the efficacy was investigated. 80 GaoYou pockmark ducks were divided randomly into. 8 groups, 10 ducks per groups, three groups were given TD fumarate at the dosage of 5, 15, 45 mg/kg once a day respectively, other three groups were given Tenofovir Disoproxil Fumarate at the dosage of 5, 15, 45 mg/kg once a day respectively, other one group was given Adefovir Dipivoxil at the dosage of 15 mg/kg once a day and the remaining group was blank control group. All the groups were administered for 28 days, and blood samples were taken every 7 days to determine the inhibitory effect to the DHBV-DNA level by PCR, inhibition rate was listed in the following table.

[8] = Bioavailability: blood concentration-time from plasma radioactivity; type: in vivo; conditions: mice, intragastric 30 mg/kg
Experimental: 10 mice were randomly divided into 2 groups, 5 per group, intragastricly administered 3H-TD fumarate and Tenofovir Disoproxil Fumarate at 30 mg/kg with radio dose of 135 μCi/kg respectively. Plasm samples in different times were taken to measure the radioactivity, which was then converted into the plasma concentration.
Comparison of the blood concentration (ug/ml)-time of 3H-TD fumarate and Tenofovir Disoproxil Fumarate.

## C[C@H](Cn1cnc2c(N)ncnc21)OCP(=O)(OCOC(=O)C(C)(C)C)OCOC(=O)C(C)(C)C [TD crystalline form B, 9-[2-(R)-[bis[pivaloyloxymethoxy]-phosphinylmethoxy]propyl]adenine]
[1]
  solubility conclusion, 0.1N HCl: soluble
  solubility conclusion, 0.1N NaOH: slightly
  solubility conclusion, anhydrous ethanol: freely soluble
  solubility conclusion, methanol: freely soluble
  amount of solvent (ml), 0.1N HCl: 27.3 mL
  amount of solvent (ml), 0.1N NaOH: 790 mL
  amount of solvent (ml), anhydrous ethanol: 6.0 mL
  amount of solvent (ml), methanol: 1.5 mL
[1]; water
  amount of solvent (ml), water: 840 mL
  solubility conclusion, water: slightly
[2]; day 0
  content (%): 99.2%
[2]; day 5
  content (%): 98.8%
[2]; day 10
  content (%): 98.7%
[3]; day 0
  content (%): 98.8%
[3]; day 5
  content (%): 97.7%
[3]; day 10
  content (%): 97.0%
[4]; day 0
  content (%): 99.6%
[4]; day 5
  Weight gain after moisture absorption (%): 0%
  content (%): 98.2%
[4]; day 10
  Weight gain after moisture absorption (%): 0.2%
  content (%): 96.9%
[5]; end of month 1
  content (%): 95.8%
[5]; end of month 2
  content (%): 92.7%
[5]; end of month 3
  content (%): 88.7%
[6]
  stability, overall conclusion in words: good stabilities

## C[C@H](Cn1cnc2c(N)ncnc21)OCP(=O)(OCOC(=O)C(C)(C)C)OCOC(=O)C(C)(C)C.O=C(O)/C=C/C(=O)O [TD fumarate]
[1]
  solubility conclusion, 0.1N HCl: soluble
  solubility conclusion, 0.1N NaOH: soluble
  solubility conclusion, anhydrous ethanol: freely soluble
  solubility conclusion, methanol: freely
  amount of solvent (ml), 0.1N HCl: 18.5 mL
  amount of solvent (ml), 0.1N NaOH: 65 mL
  amount of solvent (ml), anhydrous ethanol: 15.5 mL
  amount of solvent (ml), methanol: 7.4 mL
[1]; water
  amount of solvent (ml), water: 120 mL
  solubility conclusion, water: soluble
  water solubility compared with other solid TD forms, in words: better water solubility
[2]; day 0
  content (%): 99.2%
[2]; day 5
  content (%): 99.2%
[2]; day 10
  content (%): 99.1%
[3]; day 0
  content (%): 99.5%
[3]; day 5
  content (%): 99.5%
[3]; day 10
  content (%): 99.4%
[4]; day 0
  content (%): 99.2%
[4]; day 5
  Weight gain after moisture absorption (%): 0%
  content (%): 99.1%
[4]; day 10
  Weight gain after moisture absorption (%): 0%
  content (%): 99.1%
[5]; end of month 1
  content (%): 99.0%
[5]; end of month 2
  content (%): 98.7%
[5]; end of month 3
  content (%): 98.5%
[5]; month 0
  content (%): 99.3%
[6]
  stability, overall conclusion in words: good solubility and stabilities
[7]; read-out: LD50
  LD50 at 14 days: 6050 mg/kg
[7]; read-out: LD50, 95% confident limit
  LD50 at 14 days: 4500 to 7870 mg/kg
Duck Hepatitis B Virus; 5 mg/ml group
  DHBV-DNA level, First week: 92 ± 7
  DHBV-DNA level, Fourth week: 40 ± 5
  DHBV-DNA level, Second week: 71 ± 5
  DHBV-DNA level, Third week: 50 ± 9
Duck Hepatitis B Virus; 15 mg/ml group
  DHBV-DNA level, First week: 78 ± 9
  DHBV-DNA level, Fourth week: 25 ± 7
  DHBV-DNA level, Second week: 59 ± 8
  DHBV-DNA level, Third week: 39 ± 7
Duck Hepatitis B Virus; 45 mg/ml group
  DHBV-DNA level, First week: 65 ± 6
  DHBV-DNA level, Fourth week: 16 ± 8
  DHBV-DNA level, Second week: 43 ± 5
  DHBV-DNA level, Third week: 25 ± 10
[8]; 10 min
  blood concentration: 730 ng/mL
[8]; 30 min
  blood concentration: 1440 ng/mL
[8]; 45 min
  blood concentration: 1770 ng/mL
[8]; 60 min
  blood concentration: 2520 ng/mL
[8]; 90 min
  blood concentration: 1340 ng/mL
[8]; 120 min
  blood concentration: 1030 ng/mL
[8]; 180 min
  blood concentration: 940 ng/mL
[8]; 240 min
  blood concentration: 730 ng/mL
[8]; 360 min
  blood concentration: 550 ng/mL
[8]; 480 min
  blood concentration: 340 ng/mL
